These results are taken from US11602534B2, “Pyrimidine derivative kinase inhibitors” (HEFEI INSTITUTES OF PHYSICAL SCIENCE, CHINESE ACADEMY OF …, priority 2017, dated 2023).

The test system of experiment [1] is Tel-RET-BaF3. Description: Proliferation of Tel-RET-BaF3 cells, CCK8 cell viability assay. The experiment is classed as cell-based. The following applies: Mus musculus, 72 hours, stably expressing RET kinase.
Experiment [2] relates to FLT3-ITD-BaF3. Kind of experiment: Proliferation of FLT3-ITD-BaF3 cells, CCK8 cell viability assay. The experiment is classed as cell-based. Conditions: Mus musculus, 72 hours, stably expressing FLT3/ITD. In a few lines: (§1)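 Murine BaF3 cells made IL-3-independent by retroviral transduction of human kinase domains fused to N-terminal TEL or TPR fragments; parental BaF3 included. Living cells quantified by CCK8 (dehydrogenase activity) read-out, giving GI50 in μM.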
Background: Tetrazolium dyes change colour on reduction, which living cells bring about.

Experiment [3] relates to TEL-PDGFRα-BaF3. Description: Proliferation of TEL-PDGFRα-BaF3 cells, CCK8 cell viability assay. The following applies: Mus musculus, 72 hours, stably expressing PDGFRα kinase. It counts as cell-based. The method in brief:
(§2)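 Human kinase-region sequences were PCR-amplified, fused behind N-terminal TEL in MSCV-Puro and stably introduced into mouse BaF3 by retrovirus. IL-3 was then removed to give kinase-dependent lines. Compound effects on these and on parental BaF3 are scored as GI50 (μM) via CCK8 viable-cell quantification.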

For experiment [4], the system named is TEL-PDGFRβ-BaF3. Kind of experiment: Proliferation of TEL-PDGFRβ-BaF3 cells, CCK8 cell viability assay. It counts as cell-based. The following applies: Mus musculus, 72 hours, stably expressing PDGFRβ kinase. In a few lines: as §2
Experiment [5] concerns P210/T315I-BaF3. Kind of experiment: Proliferation of P210/T315I-BaF3 cells, CCK8 cell viability assay. The following applies: Mus musculus, 72 hours, stably expressing BCR-ABL/T315I. The experiment is classed as cell-based. In a few lines: as §1
For experiment [6], the system named is BaF3. Description: Proliferation of BaF3 cells, CCK8 cell viability assay. It counts as cell-based. Conditions: Mus musculus, 72 hours. In a few lines: as §2
Experiment [7] relates to P210-BaF3. Description: Proliferation of P210-BaF3 cells, CCK8 cell viability assay. It counts as cell-based. The following applies: Mus musculus, 72 hours, stably expressing BCR-ABL mutant activated kinase. The method in brief: as §1
Experiment [8] deals with Tel-cKit/T670I-BaF3. Kind of experiment: Proliferation of Tel-cKit/T670I-BaF3 cells, CCK8 cell viability assay. It counts as cell-based. The following applies: Mus musculus, 72 hours, stably expressing cKIT/T670I. The method in brief: as §2
Experiment [9] relates to TEL-VEGFR2-BaF3. Kind of experiment: Proliferation of TEL-VEGFR2-BaF3 cells, CCK8 cell viability assay. It counts as cell-based. Conditions: Mus musculus, 72 hours, stably expressing VEGFR2 kinase. The method in brief:
as §1

Experiment [10] concerns Tel-FLT3-BaF3. Kind of experiment: Proliferation of Tel-FLT3-BaF3 cells, CCK8 cell viability assay. It counts as cell-based. The following applies: Mus musculus, 72 hours, stably expressing FLT3 kinase. In a few lines: as §1
The subject of experiment [11] is Tel-cKit-BaF3. Description: Proliferation of Tel-cKit-BaF3 cells, CCK8 cell viability assay. The experiment is classed as cell-based, mouse. The following applies: Mus musculus; 72 hours, CCK8; stably expressing cKIT kinase. The method in brief:
as §2

Structures are written as SMILES.

As a reminder, the GI50 is the concentration that inhibits growth by half. A lower GI50 goes with greater sensitivity of the cells.

In the case of `CC(=O)Nc1cc(Oc2ccc(NC(=O)Cc3cccc(F)c3F)cc2)ncn1` [Example 16, N-[4-(6-acetylamino-pyrimidin-4-yloxy)-phenyl]-2-(2,3-difluoro-phenyl)-acetamide], the GI50 was 0.247 µM in [1]; 0.247 µM in [2]; 0.012 µM in experiment [3]; 0.109 µM in [4]; more than 10 µM in experiment [5]; more than 10 µM in [6]. For the same compound, the GI50 in experiment [7] was more than 10 µM; in experiment [8], more than 10 µM; in experiment [9] it was 0.853 µM; in experiment [10], 0.818 µM; in experiment [11], more than 10 µM.

In the case of `CC(=O)Nc1cc(Oc2ccc(NC(=O)Cc3ccccc3Br)cc2)ncn1` [Example 17, N-[4-(6-acetylamino-pyrimidin-4-yloxy)-phenyl]-2-(2-bromo-phenyl)-acetamide], the concentration for 50% growth inhibition (GI50) in experiment [1] is 0.229 µM; in experiment [2], 0.129 µM; in [3], 0.013 µM; in experiment [4] it was 0.105 µM; in experiment [5], more than 10 µM; in [6], more than 10 µM. In addition, the 50% growth inhibitory concentration (GI50) in [7] was more than 10 µM; in [8], more than 10 µM; in [9], 0.553 µM; in experiment [10], 0.744 µM; in experiment [11], more than 10 µM.

Turning to `COc1ccccc1CC(=O)Nc1ccc(Oc2cc(NC(C)=O)ncn2)cc1` [Example 24, N-[4-(6-acetylamino-pyrimidin-4-yloxy)-phenyl]-2-(2-methoxy-phenyl)-acetamide], the GI50 in experiment [1] was more than 10 µM; in experiment [2] it was 0.331 µM; in experiment [3] it was 0.077 µM; in experiment [4], 0.356 µM; in [5] it was more than 10 µM; in [6] it was more than 10 µM. Also, the 50% growth inhibitory concentration (GI50) in experiment [7] is more than 10 µM; in experiment [8] it was more than 10 µM; in experiment [9], 3.1 µM; in experiment [10] it was 1.76 µM; in experiment [11], more than 10 µM.

With `CC(=O)Nc1cc(Oc2ccc(NC(=O)Cc3ccccc3F)cc2)ncn1` [Example 25, N-[4-(6-acetylamino-pyrimidin-4-yloxy)-phenyl]-2-(2-fluoro-phenyl)-acetamide], the 50% growth inhibitory concentration (GI50) in experiment [1] was more than 10 µM; in [2] it was 0.263 µM; in experiment [3] it was 0.033 µM; in experiment [4], 0.073 µM; in experiment [5], 1.04 µM; in experiment [6] it was more than 10 µM. Further, the concentration for 50% growth inhibition (GI50) was more than 10 µM in experiment [7]; more than 10 µM in experiment [8]; 2.11 µM in experiment [9]; 1.15 µM in [10]; more than 10 µM in experiment [11].

As for `CC(=O)Nc1cc(Oc2ccc(NC(=O)Cc3ccccc3Cl)cc2)ncn1` [Example 26, N-[4-(6-acetylamino-pyrimidin-4-yloxy)-phenyl]-2-(2-chloro-phenyl)-acetamide], the concentration for 50% growth inhibition (GI50) in experiment [1] is more than 10 µM; in [2], 0.077 µM; in experiment [3], 0.074 µM; in experiment [4], 0.18 µM; in experiment [5], more than 10 µM; in experiment [6], more than 10 µM. The concentration for 50% growth inhibition (GI50) is more than 10 µM in [7]; more than 10 µM in experiment [8]; 1.24 µM in experiment [9]; 0.436 µM in experiment [10]; 8.68 µM in [11].

Regarding `Cc1ccc(NC(=O)NC2CCC(Oc3cc(NCCO)ncn3)CC2)cc1C(F)(F)F` (centres unmarked) [Example 40, 1-{4-[6-(2-hydroxy-ethylamino)-pyrimidin-4-yloxy]-cyclohexyl}-3-(4-methyl-3-trifluoromethyl-phenyl)-urea], the 50% growth inhibitory concentration (GI50) in experiment [1] worked out at 4.18 µM; in experiment [2], 0.168 µM; in experiment [3], 0.021 µM; in [4] it was 0.33 µM; in [5], 3.93 µM; in [6], 5.06 µM. Further, the GI50 in experiment [7] amounted to 5.36 µM; in [8] it was 2.4 µM; in experiment [9], 5.09 µM; in [10] it was 0.58 µM; in [11] it was 5.19 µM.

With `COCCNc1cc(OC2CCC(NC(=O)Nc3ccc(C)c(C(F)(F)F)c3)CC2)ncn1` (centres unmarked) [Example 41, 1-{4-[6-(2-methoxy-ethylamino)-pyrimidin-4-yloxy]-cyclohexyl}-3-(4-methyl-3-trifluoromethyl-phenyl)-urea], the GI50 in [1] worked out at 3.18 µM; in [2], 0.109 µM; in experiment [3], 0.059 µM; in experiment [4] it was 0.233 µM; in [5], 4.69 µM; in experiment [6], 7.8 µM. Moreover, the GI50 in experiment [7] came out at 4.43 µM; in experiment [8] it was 0.707 µM; in [9], 2.9 µM; in experiment [10], 0.263 µM; in experiment [11], 5.12 µM.

With `Cc1ccc(NC(=O)N[C@H]2CC[C@H](Oc3cc(NCCO)ncn3)CC2)cc1C(F)(F)F` [Example 42, 1-((1R,4R)-4-((6-((2-hydroxyethyl)amino)pyrimidin-4-yl)oxy)cyclohexyl)-3-(4-methyl-3-(trifluoromethyl)phenyl)urea], the 50% growth inhibitory concentration (GI50) in [1] was 3.59 µM; in experiment [2], 0.274 µM; in experiment [3] it was 0.094 µM; in experiment [4], 0.096 µM; in [5], 4.11 µM; in experiment [6], 5.5 µM. The 50% growth inhibitory concentration (GI50) in experiment [7] was 5.38 µM; in [8], 3.91 µM; in [9] it was 3.77 µM; in [10], 0.198 µM; in experiment [11], 5.18 µM.

Regarding `COCCNc1cc(O[C@H]2CC[C@H](NC(=O)Nc3ccc(C)c(C(F)(F)F)c3)CC2)ncn1` [Example 43, 1-((1R,4R)-4-((6-((2-methoxyethyl)amino)pyrimidin-4-yl)oxy)cyclohexyl)-3-(4-methyl-3-(trifluoromethyl)phenyl)urea], the GI50 is 3.4 µM in experiment [1]; 0.199 µM in experiment [2]; 0.023 µM in [3]; 0.252 µM in [4]; 5.21 µM in experiment [5]; more than 10 µM in experiment [6]. Also, the 50% growth inhibitory concentration (GI50) came out at 6.96 µM in [7]; 1.12 µM in experiment [8]; 2.6 µM in experiment [9]; 0.305 µM in experiment [10]; 5.3 µM in [11].

Take `Cc1ccc(NC(=O)N[C@H]2CC[C@H](Oc3cc(NCCN)ncn3)CC2)cc1C(F)(F)F` [Example 46, 1-((1R,4R)-4-((6-((2-aminoethyl)amino)pyrimidin-4-yl)oxy)cyclohexyl)-3-(4-methyl-3-(trifluoromethyl)phenyl)urea]: the GI50 is 4.03 µM in experiment [1]; 0.087 µM in [2]; 0.024 µM in experiment [3]; 0.248 µM in [4]; 9.17 µM in experiment [5]; 7.88 µM in [6]. For the same compound, the GI50 was more than 10 µM in experiment [7]; 0.765 µM in experiment [8]; 3.03 µM in experiment [9]; 0.228 µM in [10]; 5.1 µM in experiment [11].

With `CCC(=O)Nc1cc(Oc2ccc(NC(=O)Cc3ccccc3C(F)(F)F)cc2)ncn1` [Example 47, N-(6-{4-[2-(2-trifluoromethyl-phenyl)-acetylamino]-phenoxy}-pyrimidin-4-yl)-propanamide], the GI50 in experiment [1] was more than 10 µM; in [2] it was 0.142 µM; in [3] it was 0.028 µM; in experiment [4] it was 0.089 µM; in experiment [5], more than 10 µM; in [6] it was more than 10 µM. The GI50 was more than 10 µM in [7]; more than 10 µM in experiment [8]; 3.17 µM in experiment [9]; 0.546 µM in [10]; 8.35 µM in [11].

As for `CC(C)C(=O)Nc1cc(Oc2ccc(NC(=O)Cc3ccccc3C(F)(F)F)cc2)ncn1` [Example 49, N-(6-{4-[2-(2-trifluoromethyl-phenyl)-acetylamino]-phenoxy}-pyrimidin-4-yl)-isobutyramide], the GI50 in [1] is more than 10 µM; in experiment [2], 1.97 µM; in experiment [3] it was 0.059 µM; in [4], 0.145 µM; in [5] it was more than 10 µM; in [6] it was more than 10 µM. For the same compound, the GI50 was more than 10 µM in experiment [7]; more than 10 µM in experiment [8]; 6.11 µM in experiment [9]; 2.58 µM in experiment [10]; more than 10 µM in [11].

On to `CC(C)C(=O)Nc1cc(Oc2ccc(NC(=O)Cc3cccc(C(F)(F)F)c3)cc2)ncn1` [Example 50, N-(6-{4-[2-(3-trifluoromethyl-phenyl)-acetylamino]-phenoxy}-pyrimidin-4-yl)-isobutyramide], for which the GI50 in experiment [1] is more than 10 µM; in experiment [2] it was 0.206 µM; in [3], 0.005 µM; in [4], 0.007 µM; in [5] it was more than 10 µM; in experiment [6], more than 10 µM. Further, the GI50 in experiment [7] was more than 10 µM; in experiment [8], 9.22 µM; in [9] it was 2.58 µM; in experiment [10], 0.814 µM; in experiment [11], 0.855 µM.
